Assay results reported in ChEMBL document CHEMBL4257479, “Design, synthesis and evaluation of indole derivatives as multifunctional agents against Alzheimer's disease” (Medchemcomm, 2018).
The source made the active and inactive calls. The rule behind the calls is not given here.

Columns and labels:
[1] = target: T1, Amine oxidase [flavin-containing] A (Homo sapiens, UniProt P21397); assay: Inhibition of human recombinant MAOA using kynuramine as substrate preincubated for 10 mins followed by substrate addition at 10 secs intervals measured after 20 mins by fluorescence assay
T1 sequence (P21397 whole entry): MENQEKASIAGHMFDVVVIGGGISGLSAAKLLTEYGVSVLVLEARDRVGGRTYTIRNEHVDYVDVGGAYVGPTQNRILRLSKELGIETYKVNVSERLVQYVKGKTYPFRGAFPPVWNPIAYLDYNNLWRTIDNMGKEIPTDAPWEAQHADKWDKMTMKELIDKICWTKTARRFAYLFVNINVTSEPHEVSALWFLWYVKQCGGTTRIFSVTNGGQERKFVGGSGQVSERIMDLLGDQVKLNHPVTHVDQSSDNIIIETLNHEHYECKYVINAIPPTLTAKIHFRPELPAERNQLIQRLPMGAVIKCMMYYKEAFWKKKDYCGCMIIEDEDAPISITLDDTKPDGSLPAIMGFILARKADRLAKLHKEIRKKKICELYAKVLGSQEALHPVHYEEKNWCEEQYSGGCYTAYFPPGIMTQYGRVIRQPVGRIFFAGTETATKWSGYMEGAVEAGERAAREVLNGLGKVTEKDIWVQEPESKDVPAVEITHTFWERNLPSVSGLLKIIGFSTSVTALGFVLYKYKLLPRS

[2] = target: T2, Amine oxidase [flavin-containing] B (Homo sapiens, UniProt P27338)
T2 sequence (P27338 whole entry): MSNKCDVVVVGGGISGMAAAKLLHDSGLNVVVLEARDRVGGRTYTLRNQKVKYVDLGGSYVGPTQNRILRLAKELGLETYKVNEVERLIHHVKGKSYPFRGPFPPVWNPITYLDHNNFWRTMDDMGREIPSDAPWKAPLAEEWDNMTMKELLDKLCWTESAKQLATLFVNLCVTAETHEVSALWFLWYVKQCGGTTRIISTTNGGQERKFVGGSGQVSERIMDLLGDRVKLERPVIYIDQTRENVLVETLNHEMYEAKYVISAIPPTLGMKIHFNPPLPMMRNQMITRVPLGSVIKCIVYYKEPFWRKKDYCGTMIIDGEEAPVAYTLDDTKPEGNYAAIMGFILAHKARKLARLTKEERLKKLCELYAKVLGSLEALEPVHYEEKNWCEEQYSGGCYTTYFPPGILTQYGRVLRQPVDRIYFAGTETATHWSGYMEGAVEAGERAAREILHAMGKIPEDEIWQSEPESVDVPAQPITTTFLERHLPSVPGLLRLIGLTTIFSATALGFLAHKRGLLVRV
Description: Inhibition of human recombinant MAOB using kynuramine as substrate preincubated for 10 mins followed by substrate addition at 10 secs intervals measured after 20 mins by fluorescence assay

Cholinesterase = Cholinesterase (Equus caballus, UniProt P81908); assay: Inhibition of equine serum BuChE using S-butyrylthiocholine iodide as substrate pretreated for 10 mins followed by substrate addition and measured after 10 mins by Ellman's method
Cholinesterase, sequence (P81908 whole entry): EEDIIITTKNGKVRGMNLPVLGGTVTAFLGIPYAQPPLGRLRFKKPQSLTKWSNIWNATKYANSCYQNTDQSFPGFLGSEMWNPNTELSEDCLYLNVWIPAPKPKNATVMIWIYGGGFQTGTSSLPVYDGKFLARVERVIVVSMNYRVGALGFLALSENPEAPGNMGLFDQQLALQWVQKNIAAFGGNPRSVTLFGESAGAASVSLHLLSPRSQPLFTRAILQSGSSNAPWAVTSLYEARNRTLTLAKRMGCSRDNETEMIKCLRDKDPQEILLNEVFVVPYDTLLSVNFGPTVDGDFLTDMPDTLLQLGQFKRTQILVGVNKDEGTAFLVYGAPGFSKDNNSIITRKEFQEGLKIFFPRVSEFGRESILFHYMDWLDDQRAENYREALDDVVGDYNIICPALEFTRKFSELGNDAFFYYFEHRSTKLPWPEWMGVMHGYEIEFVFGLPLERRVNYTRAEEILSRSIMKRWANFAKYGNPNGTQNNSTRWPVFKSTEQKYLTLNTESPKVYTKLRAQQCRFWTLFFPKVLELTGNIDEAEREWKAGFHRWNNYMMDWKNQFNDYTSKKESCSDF

Acetylcholinesterase = Acetylcholinesterase (Electrophorus electricus, UniProt O42275); assay: Inhibition of electric eel AChE using acetylthiocholine iodide as substrate preincubated for 10 mins followed by substrate addition and measured after 10 mins by Ellman's method
Acetylcholinesterase, sequence (O42275 whole entry): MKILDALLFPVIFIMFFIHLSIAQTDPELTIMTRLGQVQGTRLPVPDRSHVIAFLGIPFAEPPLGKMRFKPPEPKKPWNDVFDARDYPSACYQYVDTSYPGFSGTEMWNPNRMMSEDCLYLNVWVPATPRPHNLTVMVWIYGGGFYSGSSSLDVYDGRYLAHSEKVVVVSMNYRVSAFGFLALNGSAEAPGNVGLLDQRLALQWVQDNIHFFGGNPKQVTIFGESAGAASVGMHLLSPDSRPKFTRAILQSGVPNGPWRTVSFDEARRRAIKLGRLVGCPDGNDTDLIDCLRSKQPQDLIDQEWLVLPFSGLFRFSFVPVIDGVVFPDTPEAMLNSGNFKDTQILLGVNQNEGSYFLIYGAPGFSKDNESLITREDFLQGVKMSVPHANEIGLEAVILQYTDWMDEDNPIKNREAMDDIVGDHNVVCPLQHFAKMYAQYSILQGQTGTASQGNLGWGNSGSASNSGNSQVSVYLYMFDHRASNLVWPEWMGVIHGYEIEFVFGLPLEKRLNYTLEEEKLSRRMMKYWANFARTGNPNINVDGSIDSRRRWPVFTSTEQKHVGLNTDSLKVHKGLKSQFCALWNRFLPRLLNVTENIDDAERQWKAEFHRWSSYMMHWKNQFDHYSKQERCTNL

Homo sapiens = species on record: Homo sapiens; assay: Selectivity index, ratio of IC50 for human recombinant MAOA to IC50 for human recombinant MAOB
SH-SY5Y [3] = assay: Cytoprotection against MPP+ induced cell death in human SH-SY5Y cells assessed as cell survival at 1 uM preincubated for 2 hrs followed by MPP+ addition and measured after 48 hrs by MTT assay (reference value: 52.78 +/- 7.35%); assay type: functional; conditions: read-out: Activity
SH-SY5Y [4] = assay: Cytoprotection against MPP+ induced cell death in human SH-SY5Y cells assessed as cell survival at 5 to 10 uM preincubated for 2 hrs followed by MPP+ addition and measured after 48 hrs by MTT assay (reference value: 52.78 +/- 7.35%); assay type: functional, cell-based
SH-SY5Y [5] = assay: (§1) Cytotoxicity against human SH-SY5Y cells assessed as reduction in cell viability after 48 hrs by MTT assay; assay type: cell-based; conditions: sh-sy5y, 48 h
[6] = as §1; assay type: cell-based; conditions: SH-SY5Y cells
[7] = target: T1, Amine oxidase [flavin-containing] A; assay: Irreversible time dependent inhibition of human recombinant MAOA at 2 times IC50 using kynuramine as substrate preincubated up to 60 mins followed by 45 uM substrate addition by fluorescence assay; conditions: TDE = time-dependent effect
[8] = Stability in 0.1 M HCl assessed as compound degradation at 1 mg/ml up to 7 days by UV/vis absorbance assay; assay type: physicochemical; conditions: buffer, 168 h
[9] = Stability in 0.1 M NaOH assessed as compound degradation at 1 mg/ml up to 7 days by UV/vis absorbance assay; assay type: physicochemical; conditions: 168 h

| SMILES | IC50 [1] | IC50 [2] | IC50 (Cholinesterase) | IC50 (Acetylcholinesterase) | Ratio IC50 (Homo sapiens) | viability at 1 µM (SH-SY5Y [3]) | Activity (SH-SY5Y [4]) | Activity (SH-SY5Y [5]) | CC50 at 48 h [6] | inhibition (INH) [7] | Stability [8] | Stability [9] |
| --- | --- | --- | --- | --- | --- | --- | --- | --- | --- | --- | --- | --- |
| CCN(CC)C(=O)Nc1ccc2[nH]ccc2c1 | > 100 µM | > 100 µM | 3.48 µM | 1.97 µM | – | – | – | – | – | – | – | – |
| C#CCN[C@@H]1CCc2ccc(OC(=O)N(C)CC)cc21 [LADOSTIGIL] | > 100 µM | – | 1.98 µM | 31.8 µM | > 2.69 | – | – | – | – | – | – | – |
| CCN(CC)C(=O)Oc1ccc2cc[nH]c2c1 | 88.1 µM | > 100 µM | 3.18 µM | 3.72 µM | < 0.88 | – | – | – | – | – | – | – |
| CCN(CC)C(=O)Nc1ccc2cc[nH]c2c1 | 20.4 µM | > 100 µM | 4.55 µM | 2.28 µM | < 0.2 | 84.3% | Active | Dose-dependent effect | > 100 µM | – | – | – |
| C#CCn1ccc2cc(NC(=O)N(CC)CC)ccc21 | 33.4 µM | 28.8 µM | 3.96 µM | 2.77 µM | 1.16 | – | – | – | – | – | – | – |
| C#CCn1ccc2ccc(NC(=O)N(CC)CC)cc21 | 4.31 µM | 2.62 µM | 2.82 µM | 3.7 µM | 1.65 | 107% | Active | Dose-dependent effect | > 100 µM | Tde | Stable | Stable |
| C#CCN(C)CCCOc1ccc(Cl)cc1Cl [CLORGILINE] | – | – | – | – | – | – | – | – | – | Tde | – | – |
| C#CCn1ccc2cc(OC(=O)N(CC)CC)ccc21 | 99.1 µM | 16.5 µM | 3.01 µM | 2.57 µM | 6 | – | – | – | – | – | – | – |
| CCN(CC)C(=O)Oc1ccc2[nH]ccc2c1 | 13.2 µM | > 100 µM | 2.29 µM | 2.78 µM | < 0.13 | – | – | – | – | – | – | – |
| C#CCn1ccc2ccc(OC(=O)N(CC)CC)cc21 | 51.6 µM | 1.84 µM | 5.01 µM | 2.41 µM | 28.1 | – | – | – | – | – | Unstable | Unstable |
